molecular target: T1, dopamine D1 receptor (hD1R) (Homo sapiens, UniProt P21728); experiment: cAMP BRET (CAMYEL) assay with dopamine curves, operational model of allostery (functional KB); assay type: cell-based; conditions: read-out: pKB (KB, μM) ^1 (converted)
T1 construct: gene DRD1; hD1R stably expressed in FlpIn CHO cells
T1 sequence (P21728 whole entry): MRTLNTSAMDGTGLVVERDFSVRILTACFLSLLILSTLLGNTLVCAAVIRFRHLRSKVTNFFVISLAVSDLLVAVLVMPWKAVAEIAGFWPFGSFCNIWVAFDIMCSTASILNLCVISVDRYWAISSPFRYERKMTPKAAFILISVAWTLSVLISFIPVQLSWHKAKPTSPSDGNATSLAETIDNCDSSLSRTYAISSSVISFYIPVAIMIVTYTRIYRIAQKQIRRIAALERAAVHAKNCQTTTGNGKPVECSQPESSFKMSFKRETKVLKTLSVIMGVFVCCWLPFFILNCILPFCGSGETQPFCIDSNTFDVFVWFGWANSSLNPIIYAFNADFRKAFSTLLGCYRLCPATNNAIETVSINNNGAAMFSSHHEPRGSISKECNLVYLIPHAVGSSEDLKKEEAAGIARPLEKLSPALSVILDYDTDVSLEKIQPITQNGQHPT

Row | Kb [µM] | SMILES
1 | 1.6 | Cc1ccc(Cl)c(NC(=O)C2(C)CC3c4ccccc4C2c2ccccc23)c1Cl (racemic) [rac-2, rel-(9R,10R,12S)-N-(2,6-Dichloro-3-methylphenyl)-12-methyl-9,10-dihydro-9,10-ethanoanthracene-12-carboxamide]
2 | 1 | Cc1ccc(Cl)c(NC(=O)[C@@]2(C)C[C@H]3c4ccccc4[C@@H]2c2ccccc23)c1Cl [(S)-2, (9S,10R,12R)-N-(2,6-Dichloro-3-methylphenyl)-12-methyl-9,10-dihydro-9,10-ethanoanthracene-12-carboxamide]
3 | 7.6 | Cc1ccc(Cl)c(NC(=O)[C@]2(C)C[C@H]3c4ccccc4[C@@H]2c2ccccc23)c1Cl [(R)-2, (9R,10S,12S)-N-(2,6-Dichloro-3-methylphenyl)-12-methyl-9,10-dihydro-9,10-ethanoanthracene-12-carboxamide]

From publication PMC8270344, “Enantioenriched Positive Allosteric Modulators Display Distinct Pharmacology at the Dopamine D1 Receptor” (Molecules, 2021)
